In patent US4564619A, “Carbostyril derivative” (Otsuka Pharmaceutical Co., Ltd., priority 1982, dated 1986):

Assays:
[1] = system: collagen-induced aggregation in rabbit platelets; test: Inhibition of collagen-induced platelet aggregation in rabbit platelet rich plasma; format: cell-based; details: Oryctolagus cuniculus, read-out: Inhibition rate of collagen-induced aggregation; for inhibition at 100 µM (stock): Concentration of the test compound solution 10^-4 mole; for inhibition at 10 µM (stock): Concentration of the test compound solution 10^-5 mole
Description: (§1) The platelet aggregation inhibitory effect was measured by using a Platelet Aggregation Tracer Model PAT-6M (manufactured by Nikoh Bio-Science Co., Ltd.) by a method according to Kimura, et al., [IGAKU-NO-AYUMI (Progress in Medicine), Vol. 114, No. 9, pp. 718-727, Aug. 30, 1980, and Nature, pp. 927-929, 1962].
(§2) The blood sample used for the test was a 1:9 (by volume) mixture of "3.8%-CITRATE"® (a registered trademark for 3.8%-sodium citrate, manufactured by Green Cross Corp.) and whole blood collected from rabbits. Said sample was subjected to 10-minute centrifugal separation at 1,000 r.p.m. (200xG) to obtain a platelet rich plasma (PRP). The PRP thus obtained was separated, and the remaining blood sample was further subjected to 15-minute centrifugal separation at 3,000 r.p.m. (2,000xG) to obtain a platelet poor plasma (PPP).
(§3) The number of platelets in the PRP was counted by the Brecher-Clonkite Method, and the PRP was diluted with the PPP to prepare a PRP sample with a platelet concentration of 600,000/microliter to prepare for an adenosine diphosphate (ADP)-induced aggregation test, and a collagen-induced aggregation test. 0.2 Milliliter of the PRP sample was added to 2 microliters of a solution of a test compound of predetermined concentration and this mixture was placed in a 37° C. thermostat for one minute. Then 20 microliters of an ADP or collagen solution was added to the mixture. In this test, the ADP solution was prepared by adjustment to a concentration of 7.5×10^-5 M by using Auren-Beronal buffer solution (pH 7.35). Further, the collagen solution was prepared by adjustment to a concentration of 200 micrograms/ml by using collagen reagent of "Holm"® (manufactured by Hormon-Chemie Munchen, GmbH.) which was diluted wih a physiological saline solution.
(§4) The transmittance of the resultant test mixture was determined and the change of transmittance was recorded by using the aggregometer at a stirrer speed of 1,100 r.p.m.
(§5) The platelet aggregation inhibitory effect of the test compound was measured in terms of inhibition rate (%) with respect to the aggregation rate of the controls. The aggregation rate was calculated from the following formula.
(§6) Aggregation rate=[(c-a)/(b-a)]×100
(§7) The percent inhibition is calculated from the following formula.
(§8) Inhibition rate (%)=[(A-B)/A]×100
(§9) The inhibitory effect of the test compounds on collagen-induced aggregation in rabbit platelets is shown in Table 1, similarly such effect on ADP-induced aggregation in rabbit platelets is shown in Table 2.

[2] = system: ADP-induced aggregation in rabbit platelets; test: Inhibition of ADP-induced platelet aggregation in rabbit platelet rich plasma; format: cell-based; details: Oryctolagus cuniculus, read-out: Inhibition rate of ADP-induced aggregation; for inhibition at 100 µM (stock): Concentration of the test compound solution 10^-4 mole; for inhibition at 10 µM (stock): Concentration of the test compound solution 10^-5 mole
Description: as §1, §2, §3, §4, §5, §6, §7, §8, §9

coronary artery = test: Increased amount of the blood flow in coronary artery, intravenous administration, anesthetized dog; format: in vivo
Description: (§10) The change of blood flow in coronary artery and the change of blood pressure were measured by a method according to Yakura et al., [Japan Journal of Pharmacology, Vol. 57, pages 380-391 (1961)] and according to Taira, et al. [Clin. Exp. Pharmacol. Physiol., Vol. 6, pages 301-316, (1976)].
(§11) An adult bastard dog of either sex weighing 8-13 kg was anesthetized with sodium pentobarbital at the rate of 30 mg/kg by intraveneous administration, then the dog was fixed in supination and was theracotomized under a condition of forced breathing. After another intraveneous administration of sodium heparin at the rate of 500 U/kg, 100 U/kg per hour, the dog was subjected to the following experiments.
(§12) (2) Intraveneous administration
(§13) Morawitz's cannula was cannulated to the coronary sinus venosus through the auricula dextra cordis, and the blood in vein was circulated to the right carotid. The blood flow was measured by an electromagnetic blood flow meter equipped with a blood flow observation probe in the extracorporeal circulation path of the vein. The systolic force was measured by a systolometer (pick-up) placed at the left ventricle of heart, the blood pressure was measured from the femoral artery, and the heart rate was measured from the pulse. A compound to be tested was administered through the cannula being cannulated in femoral vein. The increased amount of the blood flow in coronary artery after the administration of the test compound is shown in Table 4, also the change of blood pressure is shown in Table 5.

[3] = Change of blood pressure, intravenous administration, anesthetized dog; format: in vivo; design: unit not given here; details: femoral artery
Description: as §10, §11, §12, §13

SMILES | inhibition at 100 µM (stock) [1] | inhibition at 10 µM (stock) [1] | inhibition at 100 µM (stock) [2] | inhibition at 10 µM (stock) [2] | Increased amount of the blood flow in coronary artery (coronary artery; 3 micrograms/kg) | Increased amount of the blood flow in coronary artery (coronary artery; 10 micrograms/kg) | Increased amount of the blood flow in coronary artery (coronary artery; 30 micrograms/kg) | Increased amount of the blood flow in coronary artery (coronary artery; 100 micrograms/kg) | Increased amount of the blood flow in coronary artery (coronary artery; 300 micrograms/kg) | Change of blood pressure ([3]; 10 micrograms/kg) | Change of blood pressure ([3]; 30 micrograms/kg) | Change of blood pressure ([3]; 100 micrograms/kg) | Change of blood pressure ([3]; 300 micrograms/kg) | Increased amount of the blood flow in coronary artery (coronary artery; 1000 micrograms/kg) | Change of blood pressure ([3]; 3 micrograms/kg)
COC(=O)C1=C(C)NC(C)=C(C(=O)OCCOc2ccc3c(c2)CCC(=O)N3)C1c1cccc([N+](=O)[O-])c1 (stereo not shown) [Compound 3, 6-{2-[2,6-Dimethyl-5-methoxycarbonyl-4-(3-nitrophenyl)-1,4-dihydropyridin-3-carboxy]-ethoxy}-3,4-dihydrocarbostyril] | 100% | 97% | 100% | 27% | 2 mL/min | 1 mL/min | 3 mL/min | 14 mL/min | 38 mL/min | -1 | -4 | -18 | -34 | – | –
COC(=O)C1=C(C)NC(C)=C(C(=O)OCCN(C(=O)CCCOc2cccc3[nH]c(=O)ccc23)C2CCCCC2)C1c1cccc([N+](=O)[O-])c1 (stereo not shown) [Compound 33, N--{2-[1,4-Dihydro-2,6-dimethyl-5-methoxycarbonyl-4-(3-nitrophenyl)pyridin-3-carboxy]ethyl}-N--cyclohexyl-4-(5-carbostyriloxy)butyramide] | 100% | 34% | 98% | 25% | – | – | – | 1 mL/min | 4 mL/min | – | – | – | – | 48 mL/min | –
CCN(CCOC(=O)C1=C(C)NC(C)=C(C(=O)OC)C1c1ccccc1)C(=O)CCCOc1ccc2[nH]c(=O)ccc2c1 (stereo not shown) [Compound 36, N--[2,(1,4-Dihydro-2,6-dimethyl-5-methoxycarbonyl-4-phenylpyridin-3-carboxy)ethyl]-N--ethyl-4-(6-carbostyriloxy)butyramide] | 100% | 100% | 98% | 55% | – | – | – | 4 mL/min | 12 mL/min | – | – | – | – | 38 mL/min | –
COC(=O)C1=C(C)NC(C)=C(C(=O)OCCCOc2ccc3c(c2)CCC(=O)N3)C1c1cccc([N+](=O)[O-])c1 (stereo not shown) [Compound 5, 6-{3-[2,6-Dimethyl-5-methoxycarbonyl-4-(3-nitrophenyl)-1,4-dihydropyridin-3-carboxy]-propoxy}-3,4-dihydrocarbostyril] | 38% | 12% | 20% | 4% | 3 mL/min | 12 mL/min | 47 mL/min | 89 mL/min | 77 mL/min | – | – | – | – | – | –
COC(=O)C1=C(C)NC(C)=C(C(=O)OCCOc2ccc3[nH]c(=O)ccc3c2)C1c1ccccc1[N+](=O)[O-] (stereo not shown) [Compound 20, 6-{2-[2,6-Dimethyl-5-methoxycarbonyl-4-(2-nitrophenyl)-1,4-dihydropyridin-3-carboxy]-ethoxy}carbostyril] | 100% | 100% | 100% | 65% | – | – | – | – | – | – | -4 | -8 | -32 | – | –
COC(=O)C1=C(C)NC(C)=C(C(=O)OCCCOc2cc(=O)[nH]c3ccccc23)C1c1cccc([N+](=O)[O-])c1 (stereo not shown) [Compound 37, 4-{3-[2,6-Dimethyl-5-methoxycarbonyl-4-(3-nitrophenyl)-1,4-dihydropyridin-3-carboxy]propoxy}carbostyril] | 15% | – | 17% | – | – | – | – | – | – | – | -1 | -5 | -18 | – | –
COC(=O)C1=C(C)NC(C)=C(C(=O)OCCOc2ccc3c(c2)CCC(=O)N3)C1c1ccccc1[N+](=O)[O-] (stereo not shown) [Compound 21, 6-{2-[2,6-Dimethyl-5-methoxycarbonyl-4-(2-nitrophenyl)-1,4-dihydropyridin-3-carboxy]-ethoxy}-3,4-dihydrocarbostyril] | 100% | 99% | 58% | 27% | – | – | – | – | – | -7 | -12 | -28 | -42 | – | –
COC(=O)C1=C(C)NC(C)=C(C(=O)OCCCCOc2ccc3c(c2)CCC(=O)N3)C1c1ccccc1C (stereo not shown) [Compound 29, 6-{4-[2,6-Dimethyl-5-methoxycarbonyl-4-(2-methylphenyl-1,4-dihydropyridin-3-carboxy)]-butoxy}-3,4-dihydrocarbostyril] | 69% | – | 59% | – | – | – | – | – | – | -23 | -45 | -70 | -80 | – | -7
COC(=O)C1=C(C)NC(C)=C(C(=O)OCCN(C(=O)CCCOc2ccc3[nH]c(=O)ccc3c2)C2CCCCC2)C1c1ccccc1[N+](=O)[O-] (stereo not shown) [Compound 34, N--{2-[1,4-Dihydro-2,6-dimethyl-5-methoxycarbonyl-4-(2-nitrophenyl)pyridin-3-carboxy]ethyl}-N--cyclohexyl-4-(6-carbostyriloxy)butyramide] | 100% | 100% | 94% | 98% | – | – | – | 22 mL/min | 47 mL/min | – | – | – | – | 54 mL/min | –
